Columns and labels:
[1] = refractive index (Na D-line) (dimensionless); conditions: 101.33 kPa, Liquid, Standard Abbe refractometry
[2] = refractive index (Na D-line) (dimensionless); xn = mol fraction of the nth substance listed; conditions: 101 kPa, Liquid, Standard Abbe refractometry

CC(O)CCO (centres undefined) [1,3-butanediol]
[1]
Conditions | refractive index
293.15 K | 1.4412
298.15 K | 1.4391
303.15 K | 1.437
308.15 K | 1.4349
313.15 K | 1.4329
318.15 K | 1.4308

CC(O)CCO (centres undefined) [1,3-butanediol] + NC=O
refractive index, [2]
Conditions | x2 = 0 | x2 = 0.1061 | x2 = 0.2004 | x2 = 0.3068 | x2 = 0.4026 | x2 = 0.5033 | x2 = 0.6046 | x2 = 0.7013 | x2 = 0.8073 | x2 = 0.9058
293.15 K | 1.4412 | 1.441 | 1.4409 | 1.4411 | 1.4414 | 1.4419 | 1.4425 | 1.4434 | 1.4445 | 1.4459
298.15 K | 1.4391 | 1.4389 | 1.4389 | 1.4391 | 1.4395 | 1.4401 | 1.4409 | 1.4419 | 1.4432 | 1.4448
303.15 K | 1.437 | 1.4368 | 1.4369 | 1.4372 | 1.4377 | 1.4384 | 1.4393 | 1.4404 | 1.4419 | 1.4437
308.15 K | 1.4349 | 1.4348 | 1.4349 | 1.4352 | 1.4358 | 1.4366 | 1.4377 | 1.4389 | 1.4406 | 1.4427
313.15 K | 1.4329 | 1.4328 | 1.4329 | 1.4333 | 1.434 | 1.4349 | 1.436 | 1.4374 | 1.4393 | 1.4415
318.15 K | 1.4308 | 1.4307 | 1.4309 | 1.4314 | 1.4321 | 1.4331 | 1.4344 | 1.4359 | 1.4379 | 1.4404

OCCCCO [1,4-butanediol]
[1]
Conditions | refractive index
293.15 K | 1.4451
298.15 K | 1.4431
303.15 K | 1.4411
308.15 K | 1.4391
313.15 K | 1.4372
318.15 K | 1.4352

OCCCCO [1,4-butanediol] + NC=O
refractive index, [2]
Conditions | x2 = 0 | x2 = 0.1052 | x2 = 0.1988 | x2 = 0.3041 | x2 = 0.4002 | x2 = 0.5009 | x2 = 0.6022 | x2 = 0.6992 | x2 = 0.8051 | x2 = 0.905
293.15 K | 1.4451 | 1.4445 | 1.444 | 1.4437 | 1.4436 | 1.4437 | 1.444 | 1.4445 | 1.4452 | 1.4463
298.15 K | 1.4431 | 1.4425 | 1.442 | 1.4418 | 1.4418 | 1.442 | 1.4424 | 1.4431 | 1.4439 | 1.4452
303.15 K | 1.4411 | 1.4405 | 1.44 | 1.4399 | 1.44 | 1.4403 | 1.4408 | 1.4416 | 1.4426 | 1.4441
308.15 K | 1.4391 | 1.4385 | 1.438 | 1.438 | 1.4382 | 1.4386 | 1.4392 | 1.4401 | 1.4413 | 1.443
313.15 K | 1.4372 | 1.4365 | 1.4361 | 1.4361 | 1.4364 | 1.4369 | 1.4376 | 1.4386 | 1.44 | 1.4419
318.15 K | 1.4352 | 1.4345 | 1.4341 | 1.4342 | 1.4345 | 1.4351 | 1.4359 | 1.437 | 1.4386 | 1.4407

CCCCO [butan-1-ol]
[1]
Conditions | refractive index
293.15 K | 1.3994
298.15 K | 1.3974
303.15 K | 1.3953
308.15 K | 1.3933
313.15 K | 1.3913
318.15 K | 1.3893

CCCCO [butan-1-ol] + NC=O
[2], x2 = 0
Conditions | refractive index
293.15 K | 1.3994
298.15 K | 1.3974
303.15 K | 1.3953
308.15 K | 1.3933
313.15 K | 1.3913
318.15 K | 1.3893

CCC(C)O (centres undefined) [butan-2-ol]
[1]
Conditions | refractive index
293.15 K | 1.3972
298.15 K | 1.3951
303.15 K | 1.3931
308.15 K | 1.3911
313.15 K | 1.3891
318.15 K | 1.3871

CCC(C)O (centres undefined) [butan-2-ol] + NC=O
[2], x2 = 0
Conditions | refractive index
293.15 K | 1.3972
298.15 K | 1.3951
303.15 K | 1.3931
308.15 K | 1.3911
313.15 K | 1.3891
318.15 K | 1.3871

NC=O [formamide]
[1]
Conditions | refractive index
293.15 K | 1.4475
298.15 K | 1.4467
303.15 K | 1.4459
308.15 K | 1.4451
313.15 K | 1.4442
318.15 K | 1.4433

NC=O [formamide] + CC(O)CCO
[2], x1 = 1
Conditions | refractive index
293.15 K | 1.4475
298.15 K | 1.4467
303.15 K | 1.4459
308.15 K | 1.4451
313.15 K | 1.4442
318.15 K | 1.4433

NC=O [formamide] + CCC(C)O
refractive index, [2]
Conditions | x1 = 0.1043 | x1 = 0.2043 | x1 = 0.3056 | x1 = 0.4083 | x1 = 0.5093 | x1 = 0.6063 | x1 = 0.7068 | x1 = 0.8042 | x1 = 0.9024 | x1 = 1
293.15 K | 1.3993 | 1.4017 | 1.4045 | 1.4079 | 1.4119 | 1.4165 | 1.4222 | 1.4289 | 1.4372 | 1.4475
298.15 K | 1.3973 | 1.3996 | 1.4025 | 1.4061 | 1.4102 | 1.4149 | 1.4207 | 1.4276 | 1.4361 | 1.4467
303.15 K | 1.3953 | 1.3977 | 1.4007 | 1.4043 | 1.4085 | 1.4133 | 1.4193 | 1.4263 | 1.435 | 1.4459
308.15 K | 1.3933 | 1.3958 | 1.3989 | 1.4026 | 1.4068 | 1.4118 | 1.4179 | 1.4251 | 1.434 | 1.4451
313.15 K | 1.3913 | 1.3939 | 1.397 | 1.4008 | 1.4051 | 1.4102 | 1.4164 | 1.4237 | 1.4328 | 1.4442
318.15 K | 1.3893 | 1.3919 | 1.3951 | 1.399 | 1.4034 | 1.4086 | 1.4149 | 1.4224 | 1.4317 | 1.4433

NC=O [formamide] + CCCCO
refractive index, [2]
Conditions | x1 = 0.1093 | x1 = 0.2057 | x1 = 0.3138 | x1 = 0.4104 | x1 = 0.5115 | x1 = 0.6124 | x1 = 0.7081 | x1 = 0.8123 | x1 = 0.9086 | x1 = 1
293.15 K | 1.4023 | 1.4052 | 1.4086 | 1.4119 | 1.4158 | 1.4203 | 1.4252 | 1.4316 | 1.4389 | 1.4475
298.15 K | 1.4003 | 1.4032 | 1.4067 | 1.4101 | 1.4141 | 1.4187 | 1.4238 | 1.4303 | 1.4378 | 1.4467
303.15 K | 1.3983 | 1.4012 | 1.4048 | 1.4083 | 1.4124 | 1.4171 | 1.4223 | 1.429 | 1.4367 | 1.4459
308.15 K | 1.3963 | 1.3992 | 1.4029 | 1.4065 | 1.4107 | 1.4155 | 1.4208 | 1.4277 | 1.4357 | 1.4451
313.15 K | 1.3943 | 1.3973 | 1.4011 | 1.4047 | 1.409 | 1.4139 | 1.4194 | 1.4264 | 1.4345 | 1.4442
318.15 K | 1.3923 | 1.3954 | 1.3992 | 1.4029 | 1.4073 | 1.4123 | 1.4179 | 1.4251 | 1.4334 | 1.4433

NC=O [formamide] + OCCCCO
[2], x1 = 1
Conditions | refractive index
293.15 K | 1.4475
298.15 K | 1.4467
303.15 K | 1.4459
308.15 K | 1.4451
313.15 K | 1.4442
318.15 K | 1.4433

Source: the NIST ThermoML archive (doi:10.1021/je7007632)
